According to patent US20190201578A1, “Biomaterial Implant” (The Johns Hopkins University, priority 2017, published 2019):

Tests used:
rat cornea wound [1] = assay: cornea wound electric current and ion flux measured with vibrating probe; conditions: for cornea wound electric signal: 10 mM
Protocol: In order to understand corneal wound healing, the spatiotemporal dynamics of rat cornea wound electric currents and ion flux using a vibrating probe were characterized. In particular, measurements of deeper wounds of approximately 100 microns in depth, penetrating the stroma, were analyzed. For both shallow and deep wounds, electric current and ion flux were maximized at the wound edge, minimized at the wound center, and reduced to normal (unwounded) values at a small distance outside the wound. Wound electric current was outward (i.e., outward transient outward flux of potassium which diminished rapidly and therefore appeared to be leakage). Small fluxes of calcium and sodium were also observed. The main ion flux appeared to be a large influx of chloride ions at the wound edge. Time lapse measurements of electric current in the hours after wounding indicate that the wound electric signal was long-lasting and appears to be actively-regulated. The wound electric signal increased rapidly until approximately 40 minutes after wounding and was maintained at a high level for several hours. FIGS. 9 and 10 show time lapse data for both a shallow (normal epithelial) wound and a deep (stromal) wound. In this regard, electric signals for a shallow depth wound and a deep wound were compared.
Furthermore, the epithelial wounds were manually made using a biopsy punch. To replicate a more traumatic cornea wound that penetrates both the epithelium and stroma, a Nidek EC-5000 excimer laser was used. The laser settings to obtain circular wounds were 2 mm in diameter and approximately 100 μm deep. We confirmed wound depth using optical coherence tomography (OCT). […] The laser application was performed by first chilling eyes in a saline ice bath prior to wounding, and then applying the laser in 10 second bursts, with 5 second rest in between to minimize laser damage outside the wound. […]
Wounds 3.5 mm in diameter that normally took 48 hours or more to completely heal were healed in 30 hours in the presence of these therapeutics. To ensure that the aminophylline has the same effect on deep wounds as shallow epithelial wounds, wound electric fields were measured using the vibrating probe with and without the presence of 1 and 10 mM aminophylline. […]
The effects of two distinct rehydrated collagen membranes (with a nominal thickness of 100 μm) on cornea wound electric signal were characterized. […] As the probe was moved away from the source of electric signal, the current detected fell exponentially.
The effect of physical presence of collagen membrane and probe distance from wound edge on the electric signal was tested. The probe was placed in measuring position as close as possible to the wound edge with the collagen membrane, and the electric signal was recorded. […]

[2] = cited from earlier work
rat cornea wound [3] = assay: cornea wound healing in the presence of therapeutics; conditions: for time to heal: wounds 3.5 mm in diameter that normally took 48 hours or more
Protocol: Furthermore, the epithelial wounds were manually made using a biopsy punch. To replicate a more traumatic cornea wound that penetrates both the epithelium and stroma, a Nidek EC-5000 excimer laser was used. The laser settings to obtain circular wounds were 2 mm in diameter and approximately 100 μm deep. We confirmed wound depth using optical coherence tomography (OCT). […] The laser application was performed by first chilling eyes in a saline ice bath prior to wounding, and then applying the laser in 10 second bursts, with 5 second rest in between to minimize laser damage outside the wound. […] The dynamic time course of the electric signal change in the hours after wounding was also similar to that of shallower wounds (see FIG. 9). Normal epithelial wounds 2 mm in diameter heal almost completely in 48 hours. Deep laser wounds took longer to heal than shallow epithelial wounds, but did heal 100% by day 8 (see FIG. 10).
Wounds 3.5 mm in diameter that normally took 48 hours or more to completely heal were healed in 30 hours in the presence of these therapeutics. To ensure that the aminophylline has the same effect on deep wounds as shallow epithelial wounds, wound electric fields were measured using the vibrating probe with and without the presence of 1 and 10 mM aminophylline. FIG. 11 illustrates the presence of aminophylline in the wound.
FIG. 12 illustrates wound healing of a deep wound (100 μm) without and with the presence of 1 mM aminophylline as function of time. In this regard, at 500, deep wound healing with and without the presence of aminophylline are shown. At 520, an OCT image of the control wound is shown. At 540, an OCT image with the presence of aminophylline in the wound is shown.
Furthermore, FIG. 13 illustrates the percentage of wound healing as a function of time for corneas treated with the bioelectric modulator aminophylline (1 mM).

| Structure (SMILES) | chloride flux at the wound (rat cornea wound [1]) | cornea wound electric signal (rat cornea wound [1]) | wound electric field (rat cornea wound [1]; deep wounds, 1 and 10 mM, FIG. 11) | log partition (log P) coefficient value [2] | cornea wound healing (rat cornea wound [3]) | wound healing of a deep wound (OCT) (rat cornea wound [3]; deep wound 100 μm, 1 mM, FIG. 12) | time to heal (rat cornea wound [3]) |
| --- | --- | --- | --- | --- | --- | --- | --- |
| Cn1c(=O)c2[nH]cnc2n(C)c1=O [aminophylline] | significantly increases | significantly increase | increase in the wound electric field | −3.03 | significantly enhanced | faster than a control | 30 h |
| O=C1O[C@H]([C@@H](O)CO)C(O)=C1O [ascorbic acid] |  | significantly increase |  |  | significantly enhanced |  | 30 h |
